Where “and” joins values, the source holds several entries; their conditions need not be identical. Equal values may be shown once.
Assay: molar heat capacity at constant pressure
Details: 101.33 kPa, Crystal, Small sample (50 mg) DSC

[Pb].[Pb].[Pb].[U] [uranium trilead]
Details | molar heat capacity at constant pressure
316.34 K | 102.56 J/K/mol and 102.48 J/K/mol
326.01 K | 102.76 J/K/mol and 102.64 J/K/mol
336.81 K | 102.96 J/K/mol and 102.76 J/K/mol
346.52 K | 102.92 J/K/mol and 103.16 J/K/mol
356.26 K | 103 J/K/mol and 103.32 J/K/mol
366.02 K | 103.12 J/K/mol and 103.44 J/K/mol
375.81 K | 103.24 J/K/mol and 103.6 J/K/mol
385.63 K | 103.36 J/K/mol and 103.72 J/K/mol
395.49 K | 103.44 J/K/mol and 103.88 J/K/mol
405.37 K | 103.52 J/K/mol and 104 J/K/mol
415.29 K | 104.12 J/K/mol and 103.64 J/K/mol
425.25 K | 104.24 J/K/mol and 103.72 J/K/mol
435.23 K | 104.32 J/K/mol and 103.8 J/K/mol
445.22 K | 104.44 J/K/mol and 103.88 J/K/mol
455.21 K | 104.56 J/K/mol and 103.96 J/K/mol
465.2 K | 104.64 J/K/mol and 104 J/K/mol
475.19 K | 104.72 J/K/mol and 104.08 J/K/mol
485.18 K | 104.8 J/K/mol and 104.16 J/K/mol
495.17 K | 104.92 J/K/mol and 104.2 J/K/mol
505.15 K | 105 J/K/mol and 104.28 J/K/mol
515.13 K | 105.08 J/K/mol and 104.32 J/K/mol
525.11 K | 105.12 J/K/mol and 104.4 J/K/mol
535.04 K | 105.2 J/K/mol and 104.44 J/K/mol
544.83 K | 105.28 J/K/mol and 104.48 J/K/mol
554.76 K | 105.36 J/K/mol and 104.52 J/K/mol
564.58 K | 105.4 J/K/mol and 104.56 J/K/mol
574.42 K | 105.48 J/K/mol and 104.64 J/K/mol
584.3 K | 105.52 J/K/mol and 104.68 J/K/mol
594.25 K | 105.6 J/K/mol and 104.72 J/K/mol
604.13 K | 105.64 J/K/mol and 104.76 J/K/mol
